{
  "source": "patent US20130046257A1",
  "about": "“METHODS OF USING AGENTS THAT MODULATE CLAUDIN EXPRESSION” (priority 2010, published 2013)",
  "molecules": {"B1": {"name": "IL-4: human IL-4 (R&D system), Th2 cytokine (protein, UniProt P05112 25-153, looked up)", "Interleukin-4": "HKCDITLQEIIKTLNSLTEQKTLCTELTVTDIFAASKNTTEKETFCRAATVLRQFYSHHEKDTRCLGATAQQFHRHKQLIRFLKRLDRNLWGLAGLNSCPVKEANQSTLENFLERLKTIMREKYSKCSS"}},
  "key": {"CLDN1 mRNA": {"test_system": "CLDN1 mRNA", "test": "qPCR of CLDN1 in PHK treated with ciglitazone", "type": "cell-based, human", "settings": "CIG 5 μM, 24 h, PHK in high Calcium media (DMEM)", "procedure": "(§1) PHK were differentiated in high Calcium media (DMEM) in the presence of CIG 5 μM in DMSO or media with equivalent amount of DMSO alone, for 24 h. Total RNA was extracted from PHK using the QlAshredder spin column (Qiagen) and RNeasy RNA isolation kits (Qiagen). The quality of total RNA samples (RNA Integrity Number, RIN) was assessed using an Agilent 2100 Bioanalyzer (Agilent Technologies, Palo Alto, Calif.).\n(§2) qPCR was performed using the iScript™ cDNA Synthesis kit and iQ™ SYBER Green Supermix assay system (Bio-Rad Laboratories). All PCR amplifications were carried out in triplicate on an iQ5 Multicolor real-time PCR detection system (Bio-Rad). Primers were designed and synthesized by Integrated DNA Technologies. Relative gene expression was calculated by using the 2^−ΔΔCt method, as previously described. The normalized Ct value of each sample was calculated using GAPDH as an endogenous control gene."}, "occludin mRNA": {"test_system": "occludin mRNA", "test": "qPCR of occludin in PHK treated with ciglitazone", "type": "cell-based, human", "settings": "CIG 5 μM, 24 h, PHK in high Calcium media (DMEM)", "procedure": "as §1, §2"}, "[1]": {"test_system": "human cultured keratinocytes and reconstructed human epidermis", "settings": "Kurasawa et al. 2009; cited from earlier work"}, "human epidermis sheet": {"test_system": "human epidermis sheet", "test": "TEER of human epidermal sheets treated with sodium decanoate", "type": "cell-based", "settings": "1 mM, T0", "source_text": "Epidermal sheets were obtained from discarded human skin using a weck blade (0.08 inch). Epidermal samples were mounted in an adapted snap-well system (Pierro et al., “Zonula Occludens Toxin Structure-Function Analysis, Identification of the Fragment Biologically Active on Tight Junctions and of the Zonulin Receptor Binding Domain,” J. Biol."}, "[2]": {"test_system": "primary human keratinocytes (PHK)", "test": "Trans Epithelial Electric Resistance (TEER) of PHK", "type": "cell-based", "procedure": "Human keratinocytes were isolated from neonatal foreskin. Poumay et al., “Basal Detachment of the Epidermis Using Dispase: Tissue Spatial Organization and Fate of Integrin Alpha 6 Beta 4 and Hemidesmosomes,” J. Invest. Dermatol. 102:111-7 (1994), which is hereby incorporated by reference in its entirety. PHK were cultured in Keratinocyte-SFM (Invitrogen/Gibco) with 1% Pen/Strep, 0.2% Amphotericin B (Invitrogen/Gibco). To differentiate PHK, cells were grown in DMEM (Invitrogen/Gibco) with 10% heat-inactivated fetal bovine serum (Invitrogen/Gibco) and 1% Pen/Strep, 0.2% Amphotericin B (Invitrogen/Gibco). For TJ modulation experiments, the following cytokines were added alone or in combination to the differentiation media; human IL-4 (50 ng/ml; R&D system) and IL-13 (50 ng/ml; R&D system).\nPHK were plated at a subconfluent density of 2.5−3×10^4 cells/filter in Transwell insert and cultured in Keratinocyte-SFM media until confluent. TEER was measured using an EVOMX voltohmmeter (World Precision Instruments, Sarasota, Fla.). The resistance of cell-free filters was subtracted from each experimental value.\nPHK were plated on glass coverslips at 2-3×10^5 cells/well in a 6-well plate or at 2-3×10^4 cells/filter in Transwell insert (Costar; PET membrane, 0.4 μm pore size, 6.5 mm insert) in Keratinocyte-SFM without antibiotics. The next day after plating, cells were transfected with claudin-1 specific or control (scrambled) siRNAs (Santa Cruz) using Lipofectamine™ 2000 transfection Reagent (Invitrogen). TEER and permeability experiments were conducted 48 hours after PHK were switched to differentiation media.\nTEER was measured in PHK as described above. PHK were stimulated with S. aureus-derived peptidoglycan (PGN, 0.2-20 μg/ml, n=3-7) (FIG. 19A), Malp-2 (10-1000 ng/ml, n=3) (FIG. 19B), and Pam3CSK4 a TLR1/2 ligand (0.01-20 μg/ml, n=3-6) (FIG. 19C). Data are presented by analyzing the area under the TEER curve and normalized to the mean values for the control group (media alone)*p<0.05; **p<0.01."}, "claudin-1": {"test_system": "claudin-1", "sequence (O95832 whole entry)": "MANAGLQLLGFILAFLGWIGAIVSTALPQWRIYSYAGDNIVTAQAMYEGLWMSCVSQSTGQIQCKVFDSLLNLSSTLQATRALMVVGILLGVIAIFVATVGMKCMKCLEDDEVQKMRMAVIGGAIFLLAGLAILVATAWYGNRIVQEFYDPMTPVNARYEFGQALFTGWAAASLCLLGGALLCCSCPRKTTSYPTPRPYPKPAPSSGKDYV", "test": "Western blot of claudin-1 in PHK differentiated with Th2 cytokines", "type": "cell-based, human", "settings": "48 hours, 50 ng/ml, n=3", "procedure": "(§3) Human keratinocytes were isolated from neonatal foreskin. Poumay et al., “Basal Detachment of the Epidermis Using Dispase: Tissue Spatial Organization and Fate of Integrin Alpha 6 Beta 4 and Hemidesmosomes,” J. Invest. Dermatol. 102:111-7 (1994), which is hereby incorporated by reference in its entirety. PHK were cultured in Keratinocyte-SFM (Invitrogen/Gibco) with 1% Pen/Strep, 0.2% Amphotericin B (Invitrogen/Gibco). To differentiate PHK, cells were grown in DMEM (Invitrogen/Gibco) with 10% heat-inactivated fetal bovine serum (Invitrogen/Gibco) and 1% Pen/Strep, 0.2% Amphotericin B (Invitrogen/Gibco). For TJ modulation experiments, the following cytokines were added alone or in combination to the differentiation media; human IL-4 (50 ng/ml; R&D system) and IL-13 (50 ng/ml; R&D system). […]\n(§4) Previous studies have shown that claudin-1 expression in noncutaneous epithelial cells can be modulated by cytokines and growth factors. […] To test this possibility, PHK were differentiated in the presence or absence of Th2 cytokines, IL-4 and IL-13, and the expression of claudin-1, occludin and ZO-1 was evaluated. […]"}, "occludin and ZO-1": {"test_system": "occludin and ZO-1", "test": "Expression of occludin and ZO-1 in PHK differentiated with Th2 cytokines", "type": "cell-based, human", "settings": "PHK differentiated with cytokine", "procedure": "as §3, §4"}, "[3]": {"test_system": "CLDN1, occludin, ZO-1 and CLDN23", "test": "Western blot of TJ proteins in PHK treated with PGN or TLR2 ligands", "type": "cell-based, human", "settings": "48 hr; PGN 0.2-20 μg/ml, Pam3CSK4 0.1-20 μg/ml, MALP2 10-1000 ng/ml", "procedure": "PHFK were treated with PGN (0, 0.2, 2, 20 μg/ml) (as shown in FIG. 21A), Pam3CSK4 (0, 0.1, 1, 20 μg/ml) (as shown in FIG. 21B), MALP2 (0, 10, 100, 1000 ng/ml) for 48 hr and CLDN1 (as shown in FIG. 21C), occludin, ZO-1 and CLDN23 protein levels were detected from whole cell lysates by Western blot. Quantitative protein expression was determined by densitometry of bands and normalization to the housekeeping protein ([…]). (Representative blot of n=2-3 experiments)."}},
  "data": [
    {"molecule": "CC1(COc2ccc(CC3SC(=O)NC3=O)cc2)CCCCC1", "note": "(stereo not shown) [ciglitazone]", "values": [
      {"measurement": "CLDN1 mRNA, fold over DMSO alone", "setting": "CLDN1 mRNA", "value": 1.7, "unit": "fold"},
      {"measurement": "occludin mRNA, fold", "setting": "occludin mRNA", "value": 2.0, "unit": "fold"},
      {"measurement": "occludin mRNA, fold", "setting": "occludin mRNA; listed as CIG", "value": 2, "unit": "fold"}
    ]},
    {"molecule": "CCCCCCCCCC(=O)[O-].[Na+]", "note": "[sodium decanoate]", "values": [
      {"measurement": "paracellular permeability", "setting": "[1]", "value": "increased paracellular permeability"},
      {"measurement": "transepithelial electrical resistance", "setting": "[1]", "value": "decreased transepithelial electrical resistance"},
      {"measurement": "TEER, dmem + SC_1", "setting": "human epidermis sheet", "value": 1.00},
      {"measurement": "TEER, dmem + SC_2", "setting": "human epidermis sheet", "value": 1.00},
      {"measurement": "TEER, mean SC", "setting": "human epidermis sheet", "value": 1.00}
    ]},
    {"molecule": "IL-13: IL-13 (R&D system), Th2 cytokine", "values": [
      {"measurement": "effect on TEER in dose response experiments", "setting": "[2]; 0.5-100 ng/ml, PHK", "value": "slight increase in TEER"},
      {"measurement": "claudin-1 expression, fold over control", "setting": "claudin-1", "value": "1.6±0.3", "unit": "fold"},
      {"measurement": "effect on expression of occludin and ZO-1", "setting": "occludin and ZO-1", "value": "no effect"}
    ]},
    {"molecule": "Malp-2 [reference compound]", "values": [
      {"measurement": "tight junction function (area under the TEER curve normalized to media alone)", "setting": "[2]; PGN 0.2-20 μg/ml, Malp-2 10-1000 ng/ml, Pam3CSK4 0.01-20 μg/ml", "value": "increase tight junction function"},
      {"measurement": "TJ protein expressions", "setting": "[3]", "value": "increase TJ protein expressions"}
    ]},
    {"molecule": "Pam3CSK4", "values": [
      {"measurement": "TJ protein expressions", "setting": "[3]", "value": "increase TJ protein expressions"}
    ]},
    {"molecule": "B1", "values": [
      {"measurement": "claudin-1 expression, fold over control", "setting": "claudin-1", "value": "2.1±0.4", "unit": "fold"},
      {"measurement": "effect on expression of occludin and ZO-1", "setting": "occludin and ZO-1", "value": "no effect"}
    ]}
  ]
}
